Test results: patent publication US11672799B2, “1,4-disubstituted pyridazine quinolne analogs there of and methods for treating SMN-deficiency-related conditions” (Novartis AG, priority 2013, dated 2023)
Read-outs that look alike come from different tables or passages of the source.

System: SMN protein
Assay: cellular SMN ELISA (SMN protein elevation) in myoblast cell line from SMNdelta7 mouse model
Type: cell-based
Experimental: A cellular SMN ELISA was used to measure the effects of low molecular weight compounds on SMN protein elevation. Cells from a myoblast cell line derived from the SMNdelta7 mouse model (kind gift from Steve Burden, NYU) were seeded into a 384-well plate at a density of 3000 cells/well and treated with compounds for 24 hours. ELISA capture plates were prepared by coating 384-well plates (Immulon 4HBX) with 0.5 ug/mL of anti-SMN mAb (BD Science, Catalog number 610647) at 4° C. overnight. The plates were washed 5 times with 110 uL of PBS-Tween (0.05% Tween-20, PBST), blocked with 100 uL of 1% BSA in PBST for 2 hours and washed (5 times) with 100 uL of PBST. After 24 hours of compound treatment cells were lysed in a modified RIPA-buffer, on ice for 1 hour. 20 uL of lysate and 20 uL of 1% BSA were then added to the ELISA capture plates and incubated at 4° C. overnight. Plates were washed (5 times) with PBST and then incubated with 1:100 dilution of primary rabbit anti-SMN polyclonal antibody (Santa cruz, Catalog number SC-15320) at room temperature for 1 hour and subsequently washed (5 times) with 110 uL of PBST. This was followed by addition of 1:100 Goat anti-Rabbit IgG-HRP linked (Cell Signaling, Catalog number 7074) secondary antibody for 1 hour. Plates were then washed with PBST and incubated with 40 uL TMB substrate (Cell Signaling, Catalog number 7004 L) at room temperature for 1-10 minutes with shaking. The reaction was stopped by addition of 40 uL of stop solution (Cell signaling, Catalog number 7002 L) and absorption was measured at 450 nm. Data was reported as fold activation over DMSO control, and EC50.
ELISA assay condition 1: compound concentration range 20 nM-10 uM; ELISA assay condition 2: compound concentration 100 pM-10 uM. Data generated in Biological Example 1 using ELISA conditions 1 or 2.

[1] = Biological Example 1, SMN ELISA, SMNdelta7 mouse myoblasts, 24 hours compound treatment
[2] = Biological Example 1, SMN ELISA, SMNdelta7 mouse myoblasts, 24 hours compound treatment, read-out: SMN Activity (EC50)
[3] = comparison of unsubstituted, ortho-hydroxy and ortho-alkoxy pyridazines, as in Biological Example 1
[4] = comparison of unsubstituted, ortho-hydroxy and ortho-alkoxy pyridazines, as in Biological Example 1, read-out: SMN ELISA EC50

| Structure (SMILES) | SMN Activity (fold activation over DMSO control) [1] [fold] | EC50 [2] [nM] | Fold activation [3] | EC50 [4] [nM] | SMN ELISA EC50 [3] |
| --- | --- | --- | --- | --- | --- |
| CN(c1ccc(-c2cc3ccc(=O)[nH]c3cc2O)nn1)C1CC(C)(C)NC(C)(C)C1 [Example 9-1, 7-hydroxy-6-(6-(methyl(2,2,6,6-tetramethylpiperidin-4-yl)amino)pyridazin-3-yl)quinolin-2(1H)-one] | 2.25 | 30 |  |  |  |
| CN(c1ccc(-c2ccc3cnccc3c2)nn1)C1CC(C)(C)NC(C)(C)C1 [drawing 138 R = H] |  |  | 2.7 | 320 |  |
| CN(c1ccc(-c2cc3ccc(C(N)=O)nc3cc2O)nn1)C1CC(C)(C)NC(C)(C)C1 [Example 26-5, 7-hydroxy-6-(6-(methyl(2,2,6,6-tetramethylpiperidin-4-yl)amino)pyridazin-3-yl)quinoline-2-carboxamide] | 2.16 | 1 |  |  |  |
| COc1ccnc2cc(O)c(-c3ccc(N(C)C4CC(C)(C)NC(C)(C)C4)nn3)cc12 [Example 19-1, 4-methoxy-6-(6-(methyl(2,2,6,6-tetramethylpiperidin-4-yl)amino)pyridazin-3-yl)quinolin-7-ol] | 2.65 | 10 |  |  |  |
| CCOc1cc2nccnc2cc1-c1ccc(N(C)C2CC(C)(C)NC(C)(C)C2)nn1 [drawing 139 R = OEt, 6-(7-Ethoxyquinoxalin-6-yl)-N-methyl-N-(2,2,6,6-tetramethylpiperidin-4-yl)pyridazin-3-amine] |  |  |  |  | Inactive |
| CN(c1ccc(-c2cc3ncc(Cl)cc3cc2O)nn1)C1CC(C)(C)NC(C)(C)C1 [Example 15-1, 3-chloro-7-(6-(methyl(2,2,6,6-tetramethylpiperidin-4-yl)amino)pyridazin-3-yl)quinolin-6-ol] | 2.68 | 16 |  |  |  |
| CN(c1ccc(-c2ccc3ncccc3c2)nn1)C1CC(C)(C)NC(C)(C)C1 [drawing 135 R = H] |  |  | 2.2 | 660 |  |
| CN(c1ccc(-c2cc3nccc(Cl)c3cc2O)nn1)C1CC(C)(C)NC(C)(C)C1 [Preparation 13, 4-chloro-7-(6-(methyl(2,2,6,6-tetramethylpiperidin-4-yl)amino)pyridazin-3-yl)quinolin-6-ol] | 2.6 | 7 |  |  |  |
| CN(c1ccc(-c2cc3cncnc3cc2O)nn1)C1CC(C)(C)NC(C)(C)C1 [Example 23-1, 6-(6-(methyl(2,2,6,6-tetramethylpiperidin-4-yl)amino)pyridazin-3-yl)quinazolin-7-ol] | 3.6 | 41 |  |  |  |
| Cc1ccc2cc(O)c(-c3ccc(N(C)C4CC(C)(C)NC(C)(C)C4)nn3)cc2n1 [Example 6-2, 2-methyl-7-(6-(methyl(2,2,6,6-tetramethylpiperidin-4-yl)amino)pyridazin-3-yl)quinolin-6-ol] | 3.2 | 4 |  |  |  |
| Oc1cc2ccncc2cc1-c1ccc(N2CCNCC2)nn1 [Example 27-3, 7-(6-(piperazin-1-yl)pyridazin-3-yl)isoquinolin-6-ol] | 2.74 | 199 |  |  |  |
| CN1C[C@@H]2CN(c3ccc(-c4cc5cccnc5cc4O)nn3)C[C@@H]2C1 [Example 1-3, 6-(6-((3aR,6aS)-5-methylhexahydropyrrolo[3,4-c]pyrrol-2(1H)-yl)pyridazin-3-yl)quinolin-7-ol] | 2.5 | 255 |  |  |  |
| CN(c1ccc(-c2c(O)ccc3cccnc23)nn1)C1CC(C)(C)NC(C)(C)C1 [Example 5-1, 8-(6-(methyl(2,2,6,6-tetramethylpiperidin-4-yl)amino)pyridazin-3-yl)quinolin-7-ol] | 2.6 | 300 |  |  |  |
| CN(c1ccc(-c2cc3c(C(N)=O)nccc3cc2O)nn1)C1CC(C)(C)NC(C)(C)C1 [Example 26-4, 6-hydroxy-7-(6-(methyl(2,2,6,6-tetramethylpiperidin-4-yl)amino)pyridazin-3-yl)isoquinoline-1-carboxamide] | 2.57 | 7 |  |  |  |
| COC(=O)c1ccc2cc(O)c(-c3ccc(N(C)C4CC(C)(C)NC(C)(C)C4)nn3)cc2n1 [Example 26-7, methyl 6-hydroxy-7-(6-(methyl(2,2,6,6-tetramethylpiperidin-4-yl)amino)pyridazin-3-yl)quinoline-2-carboxylate] | 2.64 | 17 |  |  |  |
| Cc1cc(C2COC2)c2cc(-c3ccc(N(C)C4CC(C)(C)NC(C)(C)C4)nn3)c(O)cc2n1 [Example 20-6, 2-methyl-6-(6-(methyl(2,2,6,6-tetramethylpiperidin-4-yl)amino)pyridazin-3-yl)-4-(oxetan-3-yl)quinolin-7-ol] | 3.18 | 165 |  |  |  |
| Cc1cc2cc(O)c(-c3ccc(N4CCNCC4)nn3)cc2cn1 [Example 37-1, 3-methyl-7-(6-(piperazin-1-yl)pyridazin-3-yl)isoquinolin-6-ol] | 2.33 | 124 |  |  |  |
| Cc1cnc2cc(-c3ccc(N(C)C4CC(C)(C)NC(C)(C)C4)nn3)c(O)cc2c1 [Example 15-3, 3-methyl-7-(6-(methyl(2,2,6,6-tetramethylpiperidin-4-yl)amino)pyridazin-3-yl)quinolin-6-ol] | 3.28 | 7 |  |  |  |
| Cc1cc(C2CCOCC2)c2cc(-c3ccc(N(C)C4CC(C)(C)NC(C)(C)C4)nn3)c(O)cc2n1 [Example 20-5, 2-methyl-6-(6-(methyl(2,2,6,6-tetramethylpiperidin-4-yl)amino)pyridazin-3-yl)-4-(tetrahydro-2H-pyran-4-yl)quinolin-7-ol] | 2.69 | 286 |  |  |  |
| CN(c1ccc(-c2cc3c(C#N)nccc3cc2O)nn1)C1CC(C)(C)NC(C)(C)C1 [Example 3-7, 6-hydroxy-7-(6-(methyl(2,2,6,6-tetramethylpiperidin-4-yl)amino)pyridazin-3-yl)isoquinoline-1-carbonitrile] | 2.9 | 2 |  |  |  |
| CN(c1ccc(-c2cc3c(cc2O)c(=O)ccn3C)nn1)C1CC(C)(C)NC(C)(C)C1 [Example 17-1, 6-hydroxy-1-methyl-7-(6-(methyl(2,2,6,6-tetramethylpiperidin-4-yl)amino)pyridazin-3-yl)quinolin-4(1H)-one] | 2.56 | 685 |  |  |  |
| Cc1ccc2cc(-c3ccc(N(C)C4CC(C)(C)NC(C)(C)C4)nn3)c(O)cc2n1 [Example 2-1, 2-methyl-6-(6-(methyl(2,2,6,6-tetramethylpiperidin-4-yl)amino)pyridazin-3-yl)quinolin-7-ol] | 3.0 | 20 |  |  |  |
| CN(c1ccc(-c2cc3cccnc3cc2O)nn1)C1CC(C)(C)NC(C)(C)C1 [Example 1-1, 6-(6-(Methyl(2,2,6,6-tetramethylpiperidin-4-yl)amino)pyridazin-3-yl)quinolin-7-ol] | 2.9 | 20 | 2.9 | 20 |  |
| Cc1cnc2cc(O)c(-c3ccc(N(C)C4CC(C)(C)NC(C)(C)C4)nn3)cc2n1 [Example 18-2, 2-methyl-7-(6-(methyl(2,2,6,6-tetramethylpiperidin-4-yl)amino)pyridazin-3-yl)quinoxalin-6-ol] | 3.31 | 9 |  |  |  |
| Cc1nccc2cc(O)c(-c3ccc(N(C)C4CC(C)(C)NC(C)(C)C4)nn3)cc12 [Example 29-2, 1-methyl-7-(6-(methyl(2,2,6,6-tetramethylpiperidin-4-yl)amino)pyridazin-3-yl)isoquinolin-6-ol] | 2.53 | 9 |  |  |  |
| CN(c1ccc(-c2cc3nc(C#N)ccc3cc2O)nn1)C1CC(C)(C)NC(C)(C)C1 [Example 26-3, 6-hydroxy-7-(6-(methyl(2,2,6,6-tetramethylpiperidin-4-yl)amino)pyridazin-3-yl)quinoline-2-carbonitrile] | 3.47 | 6 |  |  |  |
| Cc1cc2cc(O)c(-c3ccc(N(C)C4CC(C)(C)NC(C)(C)C4)nn3)cc2cn1 [Example 36-2, 3-methyl-7-(6-(methyl(2,2,6,6-tetramethylpiperidin-4-yl)amino)-pyridazin-3-yl)isoquinolin-6-ol] | 2.64 | 9 |  |  |  |
| CN(c1ccc(-c2cc3nccnc3cc2O)nn1)C1CC(C)(C)NC(C)(C)C1 [Example 13-1, 7-(6-(methyl(2,2,6,6-tetramethylpiperidin-4-yl)amino)pyridazin-3-yl)quinoxalin-6-ol] | 2.7 | 9 | 2.7 — | 9 |  |
